The record followed here is article PMC7835950 (Frontiers in Chemistry, 2021).

Where two headings read alike, the source gives them in different places.

This test deals with T1, OGDH (Rattus norvegicus, UniProt Q5XI78).
T1 sequence (Q5XI78 41-1023): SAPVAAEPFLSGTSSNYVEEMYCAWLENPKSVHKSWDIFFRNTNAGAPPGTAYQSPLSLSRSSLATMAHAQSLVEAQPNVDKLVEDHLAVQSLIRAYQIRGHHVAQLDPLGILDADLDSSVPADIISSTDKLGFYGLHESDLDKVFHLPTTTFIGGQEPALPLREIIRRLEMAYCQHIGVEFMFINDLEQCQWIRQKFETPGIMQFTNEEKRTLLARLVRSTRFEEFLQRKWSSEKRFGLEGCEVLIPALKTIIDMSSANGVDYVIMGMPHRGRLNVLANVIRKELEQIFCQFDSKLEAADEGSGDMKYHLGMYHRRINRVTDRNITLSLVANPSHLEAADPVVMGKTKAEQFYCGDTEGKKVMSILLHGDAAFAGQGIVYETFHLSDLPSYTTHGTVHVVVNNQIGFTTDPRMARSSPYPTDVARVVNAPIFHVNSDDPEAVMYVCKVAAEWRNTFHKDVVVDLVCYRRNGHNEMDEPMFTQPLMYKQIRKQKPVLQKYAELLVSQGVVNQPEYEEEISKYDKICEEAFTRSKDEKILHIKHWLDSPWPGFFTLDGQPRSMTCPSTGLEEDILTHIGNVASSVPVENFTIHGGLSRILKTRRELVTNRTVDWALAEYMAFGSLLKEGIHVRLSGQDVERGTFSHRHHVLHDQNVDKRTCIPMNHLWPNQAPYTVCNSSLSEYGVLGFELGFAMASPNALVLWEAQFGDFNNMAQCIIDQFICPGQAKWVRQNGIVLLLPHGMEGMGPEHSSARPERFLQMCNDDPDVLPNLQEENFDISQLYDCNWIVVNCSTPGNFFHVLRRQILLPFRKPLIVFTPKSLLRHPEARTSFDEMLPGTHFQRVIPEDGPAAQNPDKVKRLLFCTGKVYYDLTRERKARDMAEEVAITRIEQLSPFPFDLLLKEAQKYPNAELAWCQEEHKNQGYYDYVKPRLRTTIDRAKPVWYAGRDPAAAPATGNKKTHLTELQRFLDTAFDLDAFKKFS
T1 sequence (Q01205 69-454 partner): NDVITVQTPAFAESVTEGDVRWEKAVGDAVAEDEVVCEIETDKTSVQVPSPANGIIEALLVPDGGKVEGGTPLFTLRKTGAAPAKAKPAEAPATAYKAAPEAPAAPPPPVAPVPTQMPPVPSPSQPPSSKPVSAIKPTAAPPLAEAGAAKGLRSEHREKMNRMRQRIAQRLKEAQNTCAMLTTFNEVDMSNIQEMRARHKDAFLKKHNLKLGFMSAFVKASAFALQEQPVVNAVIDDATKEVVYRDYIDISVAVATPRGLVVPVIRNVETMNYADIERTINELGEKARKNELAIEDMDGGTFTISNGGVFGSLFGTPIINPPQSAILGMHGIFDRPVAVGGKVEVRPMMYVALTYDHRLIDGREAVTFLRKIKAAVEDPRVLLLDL
T1 sequence (Q6P6R2 36-509 partner): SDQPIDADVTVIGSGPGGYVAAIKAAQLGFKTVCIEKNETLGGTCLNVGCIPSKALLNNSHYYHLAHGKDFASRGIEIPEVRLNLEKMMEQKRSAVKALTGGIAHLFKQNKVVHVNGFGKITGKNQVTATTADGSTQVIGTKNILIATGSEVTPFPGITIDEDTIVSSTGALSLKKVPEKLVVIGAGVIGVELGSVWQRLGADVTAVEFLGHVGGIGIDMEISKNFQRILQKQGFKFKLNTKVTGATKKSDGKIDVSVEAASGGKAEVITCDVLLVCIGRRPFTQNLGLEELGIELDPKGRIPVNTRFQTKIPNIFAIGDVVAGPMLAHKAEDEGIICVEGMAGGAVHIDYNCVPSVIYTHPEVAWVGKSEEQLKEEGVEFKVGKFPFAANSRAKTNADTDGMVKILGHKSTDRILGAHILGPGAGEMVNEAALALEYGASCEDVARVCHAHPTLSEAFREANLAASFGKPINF
Kind of test: OGDH reaction (OG saturation) catalyzed by the enzyme preparation from rat liver. The class given is biochemical. On the set-up: the tissue fractions with the complexes enriched to a degree allowing for a robust detection of the enzymatic activities, have been used; from tissue. As for the experimental part:
Reactions were started by addition of the enzyme preparations to the assay media. The amount of enzyme preparations (0.074 mg protein for the preparation from liver and 0.023 mg protein for the preparation from heart) were chosen to induce the lowest reliably measured reaction rate (ΔA340 = 0.001/min) at 0.01 mM OA without the phosphonates.
Reaction rates were calculated from linear parts of the product accumulation curves (up to 10 min, dependent on the reaction rate), excluding the initial region, where mixing the reagents and solubilization of the preparation affected the optical density.
The former equation describes one type of the active sites. […] The assumption was based on the presence of the two enzymes, OGDH and OADH, in the employed preparations.
The Km and Amax values obtained in independent experiments using the non-linear and linear regression analyses of the experimental data, were averaged and presented as Mean ± Standard Error of Mean.
The values of Ki were determined as the ratio of the corresponding Intercepts to the Slopes. In the two-site model, the Ki(1) and Ki(2) were calculated separately from the linear approximations of Km,1eff/Amax,1eff vs. [I] and Km,2eff/Amax,2eff vs. [I] dependences, respectively. […] The Ki values obtained from the non-linear and linear regression analyses of the experimental data were averaged and presented as Mean ± Standard Error of Mean.

[1] abbreviates: Eadie-Hofstee, read-out: Ki, EH.
Setting [2] is: Lineweaver-Burk, read-out: Ki, LB.
Setting [3] is: Michaelis-Menten approximation, read-out: Ki, MM.
[4] abbreviates: average of MM, LB, EH, read-out: Ki, Average.

What is called Ki is a dissociation constant, usually derived from enzyme kinetics or from competition with a known ligand. In the case of `O=C(O)CCCC(=O)P(=O)(O)O` [GP, glutaryl phosphonate], the Ki under setting [1] is 6.2 ± 0.1 µM, the Ki under setting [2] is 5.6 ± 0.1 µM, the Ki under setting [3] turned out to be 7.3 ± 0.4 µM and the Ki under setting [4] was determined as 6.3 ± 0.5 µM. In addition, the Amax is given as 0.045 ± 0.001 µmol/min per mg of protein ([I] 2 µM), 0.045 ± 0.001 µmol/min per mg of protein ([I] 10 µM), 0.044 ± 0.001 µmol/min per mg of protein ([I] 50 µM) and 0.066 ± 0.011 µmol/min per mg of protein ([I] 200 µM).

As for `O=C(O)CCC(=O)P(=O)(O)O` [SP, succinyl phosphonate], the Ki runs as follows: (Ki, Average, average of MM, LB, EH) 7.4 ± 1.4 µM; (Ki, EH, Eadie-Hofstee) 7.7 ± 0.1 µM; (Ki, LB, Lineweaver-Burk) 4.9 ± 0.1 µM; (Ki, MM, Michaelis-Menten approximation) 9.6 ± 0.2 µM. In addition, the Amax is 0.043 ± 0.001 µmol/min per mg of protein ([I] 10 µM), 0.041 ± 0.001 µmol/min per mg of protein ([I] 50 µM), 0.038 ± 0.002 µmol/min per mg of protein ([I] 200 µM) and 0.019 ± 0.002 µmol/min per mg of protein ([I] 1000 µM).

Turning to `O=C(O)CCCCC(=O)P(=O)(O)O` [AP, adipoyl phosphonate], the Ki reads like this: under setting [1], 326 ± 19 µM; under setting [2], 361 ± 36 µM; under setting [3], 405 ± 11 µM; under setting [4], 364 ± 23 µM. Besides, the Amax ([I] 0.5 µM) is 0.040 ± 0.001 µmol/min per mg of protein; the Amax ([I] 2 µM) is listed as 0.042 ± 0.001 µmol/min per mg of protein; the Amax ([I] 10 µM) is recorded as 0.042 ± 0.001 µmol/min per mg of protein; the Amax ([I] 50 µM) is given as 0.042 ± 0.001 µmol/min per mg of protein; the Amax ([I] 200 µM) is listed as 0.045 ± 0.001 µmol/min per mg of protein; the Amax ([I] 1000 µM) is reported as 0.049 ± 0.001 µmol/min per mg of protein. Moreover, the Amax ([I] 5000 µM) is recorded as 0.039 ± 0.004 µmol/min per mg of protein.
